The test system of experiment [1] is INS-1E cells. The experiment can be described thus: Caspase activity assay in glucose/palmitate stressed cells. It is filed as cell-based, rat. Conditions: 2.5 μM. The protocol: The effects of the substance on cell viability, cell growth and specific apoptotic events such as caspases activity and DNA-fragmentation was monitored. INS-1E cell apoptosis was induced by treatment of cell cultures with toxic concentrations of glucose and palmitate for 24 hours. The substance of interest was added to the medium 1 hour prior to the addition of the toxic agents.
Caspase activation is a characteristic of early apoptotic cells. The experiment was carried out as described above with the exception that the caspases activity assay was applied instead of the DNA-fragmentation assay (see Example 3 for details).
10,000 Ins-1E cells were seeded per 96-well (black 96-well tissue culture plates, Falcon #353948) in 100 μl culture medium (RPMI 1640 containing 11 mM glucose, 5% FCS, 10 mM HEPES, 50 μM 2-mercaptoethanol, 1 mM MEM sodium pyruvate, 100 U/ml penicillin, 100 μg/ml streptomycin) and cultivated at 37° C., 5% CO2 in humidified atmosphere for 3 days. Media was changed to 100 μl starvation medium (culture medium with only 5 mM glucose, 1% FCS) and the cells were re-incubated for 1 day. Then media was exchanged to starvation medium containing test substances.
Apoptosis of Ins-1E cells was induced by addition of a combination of BSA coupled palmitate and glucose (pal/gluc) or a combination of cytokines (cyt) 1 hour after starting the treatment with test substances: pal/gluc: 0.3 mM palmitate:BSA (palmitic acid sodium salt:fatty acid free BSA 6:1) and 25 mM glucose. 10×cyt: 0.04 ng/ml IL-1β and 1 ng/ml IFNγ. The cells were further incubated with test substances and apoptotic inducer for 24 hours.
Caspase activity is a characteristic of early apoptotic cells. Their activity was quantified by an enzymatic assay (homogeneous caspases assay, Roche, cat. No. 03 005 372 001). Caspase activity was measured 3 hours after addition of caspases substrate according to the manufacturers guidelines.

Experiment [2] has as its system primary rat beta cells. The experiment can be described thus: Replication of primary rat beta cells (Ki67/C-peptide immunofluorescence). It is filed as cell-based. The following applies: islets treated for 72 hours. How it is done:
Cells expressing the proliferation marker Ki67 as well as C-peptide were considered to be replicating beta cells. The percentage of replicating beta cells in islets not exposed to compound 10c (Co.) and islet treated for 72 hours with the indicated amounts of compound 10c was determined by immunofluorescence microscopy.
Isolated rat islets were cultured for 72 hours in the presence of compound 10c before the islets were disaggregated and dispersed on microscope slides. Replicating beta cells were identified by immunohistological staining of dispersed islets with antibodies against C-peptide, a proteolytic fragment of proinsulin, and the cell division marker Ki-67.
Islets of Langerhans are isolated by standard Liberase digestion method from rat pancreata (Liberase™ Cl enzyme blend BMB Cat. #1814-435, ROCHE).
Freshly isolated islets are cultured in vitro with or without the addition of the factor of interest for 48 h. Following the culture period the islets are dispersed gently by titration in Ca^2+ and Mg^2+ free PBS. […]
An Olympus microscope equipped with an automatic image acquisition device (Olympus) is used for counting of C-peptide positive beta cells. Proliferating C-peptide/Ki-67 double positive beta cells are counted manually. Thereby the fraction of proliferating beta cells can be determined.

The subject of experiment [3] is panel of 28 protein kinases. The experiment can be described thus: KinaseProfiler biochemical kinase activity assays. The following applies: tested in parallel with 1-Azakenpaullone. How it is done: Experiments were carried out by Upstate Ltd. according to the protocols described in KinaseProfiler™ Assay Protocols Fall 2004 by Ustate Cell Signaling solutions.
Compounds 10c and e are structurally very similar to 1-Azakenpaullone and differ only by one substituent at position 9 of the D ring from their template 1-Azakenpaullone. […] These kinases were selected among about 250 different kinases based on their structural or functional similarity to GSK3, e.g. all available members of the CDK family were included in the survey because CDKs are most similar to GSK3 and several kinase inhibitors are known that inhibit members of both families. The direct comparison of different compounds in such an experiment provides information on the relative selectivity of the respective compounds.

Regarding `N#Cc1ccc2[nH]c3c(c2c1)CC(=O)Nc1cccnc1-3` [Compound 10c, 6-Oxo-5,6,7,12-tetrahydropyrido[3′,2′:2,3]azepino[4,5-b]indole-9-carbonitrile], the “reduction of caspase activity” value in experiment [1] was 77%. For the same compound, in experiment [2], the “replication of primary rat beta cells in culture” value is “stimulates the replication”. Moreover, the “kinase selectivity / activity profile” value in experiment [3] is reported as “selective kinase inhibitors”.

Values taken from US7968535B2, “Use of azapaullones for preventing and treating pancreatic autoimmune disorders” (Develogen Atkiengesellschaft, priority 2005, dated 2011).
